Measured values taken from patent publication US20100003217A1, “Compounds and Pharmaceutical Compositions for the Treatment of Viral Infections” (priority 2008, published 2010).
Several values for one entry are separate records, joined by “and”; a condition that tells them apart may be missing. Equal entries are not always repeated.

Test system: rat primary hepatocytes
Assay: Metabolic disposition of [^14C]-Compound 1 and [^14C]-2′-C-methyl guanosine in rat primary hepatocytes (incubation medium, cellular extracts, nucleotide levels)
Assay type: in vitro ADME, Sprague Dawley rat
Conditions: for AUC (area under the concentration-time curve) of Compound 7 levels: 0-24 h
Protocol: Primary hepatocytes: Freshly isolated cells from animal and human liver were obtained in suspension on ice. Cells were pelleted by centrifugation at 70-75×g (rat) or 95-90×g (monkey and human) and resuspended at 0.8 million cells per mL of platting medium (William's E supplemented with 5% FBS, 0.5% penicillin-streptomycin, 1% L-glutamine, 4 μg/mL insulin and 1 μM dexamethasone). Multi-well collagen I-coated plates (rat tail collagen type I; 12- or 6-well) were then seeded by addition of 1 mL (12-well; 0.8 million cells/well) or 2 mL (6-well; 1.6 million cells/well) of cell suspension. The plates were gently shaken to evenly distribute the cells and placed in an incubator at 37° C. for approximately 4 to 6 hours to allow cells to attach. Once cells were attached, the platting medium was removed and replaced with hepatocyte culture medium (William's E supplemented with penicillin-streptomycin, 1% L-glutamine, 1% insulin-transferrin-selenium and 0.1 μM dexamethasone). Cells were left overnight in an incubator at 37° C. to acclimatize to culture and the medium.
Hepatocyte incubations with radiolabeled Compound 1 and 2′-C-methyl guanosine, both labeled in the C-8 position of the guanine moiety, were conducted at a final volume of 2.0 mL hepatocyte culture medium/well ([…]). Culture medium from overnight incubation of cells was removed and replaced with fresh medium, pre-warmed to 37° C., containing 1 or 10 μM [^14C]-Compound 1 ([…]) or [^14C]-2′-C-methyl guanosine (127 DPM/μmol) from a stock solution in DMSO (final DMSO concentration was 0.1%) or 50% ethanol (final ethanol concentration was 0.2%). After 1, 4, 8 and 24 hours, 0.5-1.0 mL of incubation medium was removed and stored at −20° C. until analysis (described below). The remaining medium was discarded and cell monolayers were carefully washed two times with ice-cold PBS. Following the last wash, all PBS was carefully removed and 1.0 mL of extraction solution (ice-cold 70% methanol) added. Cells were scrapped off and suspended in the extraction solution, transferred to 2 mL polypropylene microfuge tubes and intracellular contents extracted overnight at −20° C.
Preliminary identification of putative metabolites was conducted by comparing the retention time of observed metabolites in incubation medium and cellular extracts with retention times obtained with chemically synthesized standards using the chromatography conditions described below. Further identification of 2′-C-methyl guanosine nucleotides (mono-, di- and triphosphate) was carried out by incubating cellular extract samples with alkaline phosphatase (10 units for 60 min at 37° C.) and comparing the HPLC retention times of the resulting nucleosides with that of authentic 2′-C-methyl guanosine.
Cellular extracts were prepared by centrifugation at 16,000 RCF using an Eppendorf microcentrifuge (Eppendorf, Model 5415D) for 10 min to remove cellular debris. An aliquot of 5-10 μL of the supernatant was added to 5 mL of EcoLite™ (MP, Irvine, Calif.) liquid scintillation cocktail and radioactivity measured by liquid scintillation counting (LSC) using a Beckman Coulter LS6500 multipurpose liquid scintillation counter (Beckman Instruments, Fullerton, Calif.). The remaining sample was then dried using a Labconco refrigerated centrivap concentrator (Labconco, Kansas City, Mo.). Dry extracts were reconstituted in 120 μL of HPLC-grade water and centrifuged at 16,000 RCF using an Eppendorf microcentrifuge for 10 min. Prior to HPLC analysis (described below), radioactivity of the concentrated extracts was measured by LSC using 5 μL aliquots. Extraction recovery was then determined by comparing total radioactivity in extracts before and after drying. The remaining extract was then analyzed by HPLC with online radioactivity detection using a Flow Scintillation Analyzer Radiomatic™ 515TR. Radioactivity in the separated components was quantified by integrating the peaks using Flo-One™ Software (Perkin Elmer Life Sciences). […]

[1] = rat hepatocytes Rs448, 10 μM [^14C]-2′-C-methyl guanosine, 1 h
[2] = rat hepatocytes Rs448, 10 μM [^14C]-2′-C-methyl guanosine, 4 h
[3] = rat hepatocytes Rs448, 10 μM [^14C]-2′-C-methyl guanosine, 8 h
[4] = rat hepatocytes Rs448, 10 μM [^14C]-2′-C-methyl guanosine, 24 h
[5] = rat hepatocytes Rs458, 1 μM [^14C]-2′-C-methyl guanosine, 1 h
[6] = rat hepatocytes Rs458, 1 μM [^14C]-2′-C-methyl guanosine, 8 h
[7] = rat hepatocytes Rs458, 1 μM [^14C]-2′-C-methyl guanosine, 24 h
[8] = rat hepatocytes Rs458, 10 μM [^14C]-2′-C-methyl guanosine, 1 h
[9] = rat hepatocytes Rs458, 10 μM [^14C]-2′-C-methyl guanosine, 4 h
[10] = rat hepatocytes Rs458, 10 μM [^14C]-2′-C-methyl guanosine, 8 h
[11] = rat hepatocytes Rs458, 10 μM [^14C]-2′-C-methyl guanosine, 24 h

C[C@@]1(O)[C@H](O)[C@@H](COP(=O)(O)OP(=O)(O)OP(=O)(O)O)O[C@H]1n1cnc2c(=O)[nH]c(N)nc21 [Compound 7, [(2R)-2-methyl-β-D-ribofuranosyl]guanine 5′-triphosphate]
metabolites observed in cellular extracts (% of total radioactivity) (rat hepatocytes (Rs458), 1 μM [^14C]-Compound 1, 24 h): 62.1%
Compound 7 AUC0-24h (rat hepatocytes (n=1), 1 μM [^14C]-2′-C-methyl guanosine): 458 pmol*h/million cells
Compound 7 AUC0-24h (rat hepatocytes (n=1), 1 μM [^14C]-Compound 1): 3,881 pmol*h/million cells
2′-C-methyl guanosine nucleotide levels in cellular extracts (rat hepatocytes Rs448, 10 μM [^14C]-2′-C-methyl guanosine, 0 h): 0 pmol/million cells
AUC (area under the concentration-time curve) of Compound 7 levels (rat hepatocytes Rs448, 10 μM [^14C]-2′-C-methyl guanosine): 5906 pmol * hr/million cells
2′-C-methyl guanosine nucleotide levels in cellular extracts [1]: 28.0 pmol/million cells
Major metabolites observed in cellular extracts (% of total radioactivity) [1]: 5.21 % of total radioactivity
2′-C-methyl guanosine nucleotide levels in cellular extracts [2]: 141 pmol/million cells
Major metabolites observed in cellular extracts (% of total radioactivity) [2]: 17.9 % of total radioactivity
2′-C-methyl guanosine nucleotide levels in cellular extracts [3]: 258 pmol/million cells and 287 pmol/million cells
Major metabolites observed in cellular extracts (% of total radioactivity) [3]: 24.1 % of total radioactivity
2′-C-methyl guanosine nucleotide levels in cellular extracts [4]: 347 pmol/million cells
Major metabolites observed in cellular extracts (% of total radioactivity) [4]: 35.6 % of total radioactivity
2′-C-methyl guanosine nucleotide levels in cellular extracts (rat hepatocytes Rs448, 10 μM [^14C]-Compound 1, 0 h): 0 pmol/million cells
AUC (area under the concentration-time curve) of Compound 7 levels (rat hepatocytes Rs448, 10 μM [^14C]-Compound 1): 31568 pmol * hr/million cells
2′-C-methyl guanosine nucleotide levels in cellular extracts (rat hepatocytes Rs448, 10 μM [^14C]-Compound 1, 1 h): 580 pmol/million cells
2′-C-methyl guanosine nucleotide levels in cellular extracts (rat hepatocytes Rs448, 10 μM [^14C]-Compound 1, 4 h): 1429 pmol/million cells
2′-C-methyl guanosine nucleotide levels in cellular extracts (rat hepatocytes Rs448, 10 μM [^14C]-Compound 1, 8 h): 1791 pmol/million cells
2′-C-methyl guanosine nucleotide levels in cellular extracts (rat hepatocytes Rs448, 10 μM [^14C]-Compound 1, 24 h): 937 pmol/million cells
AUC (area under the concentration-time curve) of Compound 7 levels (rat hepatocytes Rs458, 1 μM [^14C]-2′-C-methyl guanosine): 458 pmol * hr/million cells
2′-C-methyl guanosine nucleotide levels in cellular extracts [5]: 2.60 pmol/million cells
Major metabolites observed in cellular extracts (% of total radioactivity) [5]: 4.56 % of total radioactivity
2′-C-methyl guanosine nucleotide levels in cellular extracts [6]: 20.1 pmol/million cells
Major metabolites observed in cellular extracts (% of total radioactivity) [6]: 26.1 % of total radioactivity
2′-C-methyl guanosine nucleotide levels in cellular extracts [7]: 27.0 pmol/million cells
Major metabolites observed in cellular extracts (% of total radioactivity) [7]: 34.1 % of total radioactivity
AUC (area under the concentration-time curve) of Compound 7 levels (rat hepatocytes Rs458, 1 μM [^14C]-Compound 1): 3881 pmol * hr/million cells
2′-C-methyl guanosine nucleotide levels in cellular extracts (rat hepatocytes Rs458, 10 μM [^14C]-2′-C-methyl guanosine, 0 h): 0 pmol/million cells
AUC (area under the concentration-time curve) of Compound 7 levels (rat hepatocytes Rs458, 10 μM [^14C]-2′-C-methyl guanosine): 5384 pmol * hr/million cells
2′-C-methyl guanosine nucleotide levels in cellular extracts [8]: 23.0 pmol/million cells
Major metabolites observed in cellular extracts (% of total radioactivity) [8]: 4.42 % of total radioactivity
2′-C-methyl guanosine nucleotide levels in cellular extracts [9]: 113 pmol/million cells
Major metabolites observed in cellular extracts (% of total radioactivity) [9]: 16.2 % of total radioactivity
2′-C-methyl guanosine nucleotide levels in cellular extracts [10]: 239 pmol/million cells
Major metabolites observed in cellular extracts (% of total radioactivity) [10]: 27.0 % of total radioactivity
2′-C-methyl guanosine nucleotide levels in cellular extracts [11]: 319 pmol/million cells
Major metabolites observed in cellular extracts (% of total radioactivity) [11]: 33.9 % of total radioactivity
2′-C-methyl guanosine nucleotide levels in cellular extracts (rat hepatocytes Rs458, 10 μM [^14C]-Compound 1, 0 h): 0 pmol/million cells
AUC (area under the concentration-time curve) of Compound 7 levels (rat hepatocytes Rs458, 10 μM [^14C]-Compound 1): 28123 pmol * hr/million cells
2′-C-methyl guanosine nucleotide levels in cellular extracts (rat hepatocytes Rs458, 10 μM [^14C]-Compound 1, 1 h): 534 pmol/million cells
2′-C-methyl guanosine nucleotide levels in cellular extracts (rat hepatocytes Rs458, 10 μM [^14C]-Compound 1, 4 h): 1347 pmol/million cells
2′-C-methyl guanosine nucleotide levels in cellular extracts (rat hepatocytes Rs458, 10 μM [^14C]-Compound 1, 8 h): 1618 pmol/million cells
2′-C-methyl guanosine nucleotide levels in cellular extracts (rat hepatocytes Rs458, 10 μM [^14C]-Compound 1, 24 h): 770 pmol/million cells
Compound 7 maximal levels (rat hepatocytes, 1 μM [^14C]-Compound 1): 103 pmol/million cells
Maximum Compound 7 levels (rat hepatocytes, 10 μM [^14C]-2′-C-methyl guanosine, at 24 hours): 249 pmol/million cells
Compound 7 AUC0-24h (rat hepatocytes, 10 μM [^14C]-Compound 1): 29,846 pmol*h/million cells
Compound 7 maximum levels (rat hepatocytes, 10 μM [^14C]-Compound 1, at 8 hours): 1,705 pmol/million cells
